Source: ChEMBL document CHEMBL3045265, “Synthesis and Fungicidal Activity of 2-Alkoxyimino-2-cyanoacetamide Derivatives” (1998)

Assays:
Format in all cases: functional
[1] = test system: Pseudoperonospora cubensis; assay: Fungicidal activity against Pseudoperonospora cubensis in cucumber plant assessed as cucumber downy mildew disease control at 7.8 ppm at 22 +/- 2 degC, 98% RH measured after 10 days
[2] = test system: Pseudoperonospora cubensis; assay: Fungicidal activity against Pseudoperonospora cubensis in cucumber plant assessed as cucumber downy mildew disease control at 31.3 ppm at 22 +/- 2 degC, 98% RH measured after 10 days
[3] = test system: Pseudoperonospora cubensis; assay: Fungicidal activity against Pseudoperonospora cubensis in cucumber plant assessed as cucumber downy mildew disease control at 500 ppm at 22 +/- 2 degC, 98% RH measured after 10 days
[4] = test system: Pseudoperonospora cubensis; assay: Fungicidal activity against Pseudoperonospora cubensis in cucumber plant assessed as cucumber downy mildew disease control at 125 ppm at 22 +/- 2 degC, 98% RH measured after 10 days

Compound | Activity [3] | Activity [4] | other results
CO/N=C(\C#N)C(=O)NC1=NOC(C)(C)C1 |  |  | Activity [1]: 70%
CO/N=C(\C#N)C(=O)NC1=NOC(C)C1 (stereo unspecified) |  |  | Activity [2]: 70%
CO/N=C(\C#N)C(=O)NC1=NOC(c2ccccc2)C1 (stereo unspecified) | <70% |  | 
CO/N=C(\C#N)C(=O)NC1=NOC(CCl)(CCl)C1 |  | 70% | 
CO/N=C(\C#N)C(=O)NC1=NOC(C)(C)C1C (stereo unspecified) | 70% |  | 
CCO/N=C(\C#N)C(=O)NC1=NOC(C)(C)C1 |  |  | Activity [2]: 70%
CC(C)O/N=C(\C#N)C(=O)NC1=NOC(C)(C)C1 |  |  | Activity [2]: 70%
C=CCO/N=C(\C#N)C(=O)NC1=NOC(C)(C)C1 |  | 70% | 
CC1(C)CC(NC(=O)/C(C#N)=N/OCC#N)=NO1 | <70% |  | 
CC1(C)CC(NC(=O)/C(C#N)=N/OCc2ccccc2)=NO1 | <70% |  | 
COCO/N=C(\C#N)C(=O)NC1=NOC(C)(C)C1 |  | 70% | 
CO/N=C(\C#N)C(=O)N(C)C1=NOC(C)(C)C1 | <70% |  | 
CCN(C(=O)/C(C#N)=N/OC)C1=NOC(C)(C)C1 | <70% |  | 
CO/N=C(\C#N)C(=O)N(CC(=O)OC)C1=NOC(C)(C)C1 | <70% |  | 
COCN(C(=O)/C(C#N)=N/OC)C1=NOC(C)(C)C1 | <70% |  | 
CO/N=C(\C#N)C(=O)Nc1cc(C)cs1 | <70% |  | 
CO/N=C(\C#N)C(=O)Nc1nnc(C)s1 | <70% |  | 
CO/N=C(\C#N)C(=O)Nc1cc(C)on1 |  | 70% | 
CCOC(=O)NNC(=O)NC(=O)/C(C#N)=N/OC | <70% |  | 
CO/N=C(\C#N)C(=O)NC(=O)NNC(=O)c1ccccc1 | <70% |  | 
CO/N=C(\C#N)C(=O)NC(=O)NNS(=O)(=O)c1ccccc1 | <70% |  | 
CO/N=C(\C#N)C(=O)NC(=O)OC(C)C |  | 70% | 
CO/N=C(\C#N)C(=O)NC(=O)OC(C)(C)C(=O)OC | 70% |  | 

Compound | Activity [3] | Activity [4] | other results
CO/N=C(\C#N)C(=O)NC(=O)OCC(C)(C)C(=O)OC | <70% |  | 
CO/N=C(\C#N)C(=O)NC(=O)OCC(=O)N(C)c1ccccc1 | <70% |  | 
CO/N=C(\C#N)C(=O)NC(=O)ON=C(C)C | 70% |  | 
CO/N=C(\C#N)C(=O)NC1=NOCC1 |  | 70% | 
CO/N=C(\C#N)C(=O)NC1=NOCC1C (stereo unspecified) |  | 70% | 
CCC1CC(NC(=O)/C(C#N)=N/OC)=NO1 (stereo unspecified) |  | 70% | 
CO/N=C(\C#N)C(=O)NC1=NOC(C(C)C)C1 (stereo unspecified) |  | 70% | 
CCCCC1CC(NC(=O)/C(C#N)=N/OC)=NO1 (stereo unspecified) |  | 70% | 
CO/N=C(\C#N)C(=O)NC1=NOC(C2CCCCC2)C1 (stereo unspecified) | <70% |  | 
CO/N=C(\C#N)C(=O)NC1=NOC(Cc2ccccc2)C1 (stereo unspecified) | <70% |  | 
C=CC1CC(NC(=O)/C(C#N)=N/OC)=NO1 (stereo unspecified) | <70% |  | Activity [2]: 70%
CO/N=C(\C#N)C(=O)NC1=NOC(CO)C1 (stereo unspecified) |  | 70% | 
CO/N=C(\C#N)C(=O)NC1=NOC(CCl)C1 (stereo unspecified) |  |  | Activity [2]: 70%
CO/N=C(\C#N)C(=O)NC1=NOC(C)C1C (stereo unspecified) |  | 70% | 
CCC1ON=C(NC(=O)/C(C#N)=N/OC)C1CC (stereo unspecified) | 70% |  | 
CCC1(CC)CC(NC(=O)/C(C#N)=N/OC)=NO1 |  | 70% | 
CCC1(C)CC(NC(=O)/C(C#N)=N/OC)=NO1 (stereo unspecified) |  | 70% | 
CCCC1(C)CC(NC(=O)/C(C#N)=N/OC)=NO1 (stereo unspecified) |  | 70% | 
CO/N=C(\C#N)C(=O)NC1=NOC(C)(CO)C1 (stereo unspecified) |  |  | Activity [2]: 70%
CO/N=C(\C#N)C(=O)NC1=NOC(C)(CCl)C1 (stereo unspecified) |  |  | Activity [2]: 70%
CO/N=C(\C#N)C(=O)NC1=NOC(C(C)(C)C)C1 (stereo unspecified) |  | 70% | 
CO/N=C(\C#N)C(=O)NC(=O)OC(C)(C)C |  | 70% | 
